Where “and” joins values, the source holds several entries; their conditions need not be identical. Equal entries are not always repeated.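 Cultured in 96-well plates, cells were exposed to test compound for 48 hours across five concentrations. Here, GI50 denotes the concentration required for 50% inhibition of growth. The concentration for full growth arrest is given as TGI.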
Assays:
Experiment in all cases: NCI-60 cell line screen, 48 h
[1] = tested on: HOP-62 NSCLC
[2] = tested on: HL-60(TB) leukemia
[3] = tested on: KM12 colon
[4] = tested on: SK-OV-3 ovarian
[5] = tested on: MOLT-4 leukemia
[6] = tested on: COLO 205 colon
[7] = tested on: SW-620 colon
[8] = tested on: SN12C renal
[9] = tested on: SR leukemia
[10] = tested on: MDA-MB-435

Row | SMILES | GI50 [1] [µM] | TGI [1] [µM] | GI50 [2] | TGI [2] | GI50 [3] [µM] | TGI [3] | GI50 [4] | TGI [4] | GI50 [5] [µM] | TGI [5] [µM] | GI50 [6] | TGI [6] | GI50 [7] [µM] | TGI [7] [µM] | GI50 [8] [µM] | TGI [8] | GI50 [9] [µM] | TGI [9] [µM] | TGI [10] [µM] | GI50 [10] [µM]
1 | O=C1C(Cl)=C(Nc2cccc(C(F)(F)F)c2)C(=O)N1Cc1ccc(Cl)cc1 | 0.835 | 17.4 | 1.7 µM | > 100 µM | 2.35 | 19.6 µM | 3.78 µM | 20.8 µM | 0.119 | > 100 | 0.867 µM | 20.1 µM | 0.0609 | 16.9 | 0.545 | 10.7 µM | < 0.0219 | > 65.3 | 4.46 | 
2 | CCN(c1cc(C#CCN2CCOCC2)cc(C(=O)NCc2c(C)cc(C)[nH]c2=O)c1C)C1CCC(N(C)CCOC)CC1 (stereo unspecified) | > 100 | > 100 | > 100 µM | > 100 µM | > 100 | > 100 µM | > 100 µM | > 100 µM | > 100 | > 100 | > 100 µM | > 100 µM | > 100 | > 100 | > 100 | > 100 µM | 27 | > 100 | > 100 | > 100
3 | C[C@@H](Nc1nc(Nc2ccc(F)c(Cl)c2)nc2ccccc12)C1CC1 | 11.2 | 25 | 2.45 µM | 6.32 µM | 3.18 | 14.1 µM | 5.36 µM | 17.3 µM | 1.73 | 5.38 | 1.71 µM | 3.46 µM | 3.14 | 13.9 | 3.25 | 14.4 µM | 1.63 | 5.26 | 15 | 3.93
4 | CCCCCCCCCCCCCCCCCC(=O)Nc1ccn(C2OC(CO)C(O)C2O)c(=O)n1 (stereo unspecified) |  | > 96.2 |  | 41.8 µM |  | > 100 µM |  | > 100 µM |  | 23.1 |  | > 100 µM |  | > 100 |  | > 100 µM |  | 56.4 | > 100 | 
5 | Oc1c(CN2CCN(c3ccccc3)CC2)cc(Br)c2cccnc12 |  | 15.2 |  | 3.81 µM |  | > 100 µM |  | 26.8 µM |  | 6.15 |  | > 100 µM |  | > 100 |  | > 37.6 µM |  | 2.25 | > 100 | 
6 | O=c1oc2c(C(F)(F)F)cccc2cc1-c1csc(Nc2ccc(OCCF)cc2)n1 | 0.0378 | > 36.8 | 0.0248 µM | 0.0573 µM | 0.0375 | 17.5 µM | 0.041 µM | 23.2 µM | 0.0418 | > 100 | 0.0268 µM | 0.0729 µM | 0.0468 | > 100 | 0.271 | > 64.4 µM | 0.0383 | > 43.6 | > 100 | 0.0324
7 | CC1=NN(c2nc(N)nc(/C=C\c3ccc([N+](=O)[O-])s3)n2)C(C)(C)C1 | > 100 | > 100 | > 100 µM | > 100 µM | > 100 | > 100 µM | > 100 µM | > 100 µM | > 100 | > 100 | > 100 µM | > 100 µM | > 100 | > 100 | > 100 | > 100 µM | 49.9 | > 100 | > 100 | 62.8
8 | CC(C)(C)c1ccc(NS(=O)(=O)c2ccc3nc(NC(=O)c4cnccn4)[nH]c3c2)cc1 | 2.88 | 15.8 | 3.67 µM | 15.7 µM | 2.16 | 13.9 µM |  |  | 5 | 57.4 | 4.1 µM | 20.9 µM | 2.37 | 14.4 | 3.85 | 15.9 µM | 0.68 | > 100 | 1.53 | 0.346
9 | COc1ccc(Cn2cc3c(c2-c2cc(OC)c(OC)c(OC)c2)CCc2cnoc2-3)cc1 | 0.446 | > 100 | 0.204 µM | 0.647 µM | 0.281 | > 24.1 µM | 0.365 µM | > 100 µM | 0.468 | > 100 |  |  | 0.314 | > 100 | 0.715 | > 100 µM | 0.175 | 1.42 | 0.208 | 0.0404
10 | CC(=O)c1cc(O)c2ccccc2c1O | 17.5 | 41.4 | 25.5 µM | 62.5 µM | 18.8 | 35.1 µM | > 100 µM | > 100 µM | 33.6 | 99.4 | 19 µM | 34.4 µM | 18.4 | 49.2 | 17.5 | 36.3 µM | 28 | > 100 | 30.7 | 14.5
11 | Nc1ncc(-c2cccc(S(N)(=O)=O)c2)c2scc(-c3ccc(F)c(Cl)c3)c12 | 5.47 | 12.6 | 4.76 µM | 11.7 µM | 5.56 | 14.7 µM | 5.14 µM | > 17.6 µM | 5.35 | > 19.2 | 5.92 µM | 11.8 µM | 6.21 | 14.3 | 5.74 | > 23.2 µM | 7.12 | > 15.9 | 10.1 | 4.68
12 | C=CC(COC(c1ccccc1)(c1ccccc1)c1ccccc1)N(CC)CC (stereo unspecified) | 3.93 | 15.6 | 3.68 µM | 16.2 µM | 4.33 | 14.8 µM | 8.12 µM | 21.4 µM | 3.02 | 11.6 | 1.7 µM | 3.4 µM | 2.32 | 7.95 | 7.97 | 24.5 µM | 2.13 | 5.29 | 16.3 | 4.04
13 | C/C(=N\NC(=S)N(C)C)c1ccccn1 | 0.0203 | 12.4 | 0.000325 µM |  | 0.22 | 20 µM |  | 0.889 µM | 0.000297 | 2.12 |  |  |  | 35.4 | 0.0436 | 11.2 µM | 0.00132 |  | 18.5 | 0.00401
14 | CNCCN=c1ccc2c3c1c(O)c1c(O)ccc(=O)c1c3[nH]n2CCNCCO |  |  | 0.0496 µM and 0.314 µM | 0.663 µM and 1.22 µM | 0.918 | 4.23 µM and 15.1 µM | 0.137 µM and 0.162 µM | 3.25 µM and 5.72 µM |  |  | 0.398 µM and 0.56 µM | 4.41 µM and 4.59 µM |  |  | 0.0859 | 2.41 µM and 2.39 µM |  | 3.25 | 3.32 | 

Reference: PubChem BioAssay (NCI)
